Test results published in ChEMBL document CHEMBL1132254, “Pharmacophore development for corticotropin-releasing hormone: new insights into inhibitor activity” (J Med Chem, 1999).

Molecular target: T1, Corticotropin-releasing factor receptor 1 (Homo sapiens, UniProt P34998)
T1 sequence (P34998 whole entry): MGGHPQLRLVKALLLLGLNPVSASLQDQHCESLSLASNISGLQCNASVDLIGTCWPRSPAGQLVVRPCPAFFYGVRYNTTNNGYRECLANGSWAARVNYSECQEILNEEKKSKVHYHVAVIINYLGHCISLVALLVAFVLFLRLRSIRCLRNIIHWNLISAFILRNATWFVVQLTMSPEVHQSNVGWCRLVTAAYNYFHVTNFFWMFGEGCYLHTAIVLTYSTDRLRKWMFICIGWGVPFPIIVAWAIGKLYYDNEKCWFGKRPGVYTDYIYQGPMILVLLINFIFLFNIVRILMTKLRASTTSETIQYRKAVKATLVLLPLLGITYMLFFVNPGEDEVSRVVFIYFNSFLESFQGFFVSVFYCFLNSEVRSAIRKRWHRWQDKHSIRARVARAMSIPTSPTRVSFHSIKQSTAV
Test: Inhibition of [125I]CRH binding to human Corticotropin releasing factor receptor 1.

Row | Ki | SMILES
1 | 8 µM | CCCN(CC1CC1)c1nc(C)nc(Nc2c(OC)cc(OC)cc2OC)n1
2 | 0.253 µM | CCCN(CC1CC1)c1cc(Nc2c(Cl)cc(Cl)cc2Cl)nc(C)n1
